Measurements published in EP0768085A1, “ANTIBACTERIAL AGENT” (DAIICHI PHARMACEUTICAL CO., LTD., priority 1994, dated 1996).
In brackets after ≈: the same amount, converted by molar mass.

Tests used:
Format in all cases: cell-based
[1] = tested on: Staphylococcus aureus 209-P; experiment: Antibacterial activity (IC), Mueller-Hinton broth, 96-well microplate (Example 4, Table 39); conditions: 37°C, 18 hours
Description: (§1) A suitable amount of a sample was dissolved in dimethylsulfoxide (DMSO), and the resultant solution was diluted with the same amount of sterilized distilled water to prepare a bulk sample of 1,000 µg/ml. Mueller-Hinton broth (product of DIFCO) was dispensed into each well of 96-well microplate. Thereafter, the bulk specimen was added to the first well of a row, and successively diluted (10-fold each time) with sterilized distilled water. Separately, a bacterial cell suspension for the test (Staphylococcus aureus 209-P) which had been cultured in the above-mentioned broth overnight at 37°C was inoculated to each well so that the final inoculation amount of 10^6 CFU/ml was attained. The final concentrations of the samples were 100, 10, and 1 µg/ml.
(§2) The antibacterial action was evaluated by the inhibitory concentration (hereinafter abbreviated as IC) at which propagation of the bacteria cultured at 37°C for 18 hours was inhibited. Inhibition was determined by the turbidity of the medium. The expressions "IC≤100", "≤10", and "≤1" indicate that MIC-equivalent values obtained at the succesive […] dilution of the sample are 100-10 µg/ml, 10-1 µg/ml, and not more than 1 µg/ml, respectively. […] (In the subsequent Examples, the same rule applies correspondingly.) Table 39

[2] = tested on: Staphylococcus aureus TI-1; experiment: Antibacterial activity (IC), broth microplate as in Example 4 (Example 5, Table 40); conditions: TI1, 18 h
Description: as §1, §2
In a manner similar to that described in Example 4, antibacterial activity of the invention compound was determined. The bacterium used for the test was Staphylococcus aureus TI-1.

[3] = tested on: Streptococcus aureus (TI-1); experiment: Antibacterial activity (IC), agar as in Example 8 (Example 16, Table 49); conditions: 18 h
Description: as §2
(§3) A suitable amount of a sample was dissolved in dimethylsulfoxide (DMSO), after which the resulting solution was diluted with the same amount of sterilized distilled water to prepare a bulk sample of 1,000 µg/ml. Separately, a bacterial liquid for the test (methicillin-resistant Staphylococcus aureus (MRSA) isolated from humans) which had been cultured in Mueller-Hinton broth (product of DIFCO) was prepared and inoculated to a Mueller-Hinton agar (product of DIFCO) containing the sample so that the final inoculation amount of 10^6 CFU/ml was achieved. The final concentrations of the samples were 100, 10, and 1 µg/ml.
(§4) After culturing at 37°C for 18 hours, the antibacterial activity was evaluated in terms of IC in a manner similar to that described in Example 4.
In a manner similar to that described in Example 8, antibacterial activity of the invention compound was determined. The bacterium used for the test was […] aureus (TI-1).

[4] = tested on: Staphylococcus aureus (209-P); experiment: Antibacterial activity (IC), agar as in Example 8 (Example 15, Table 48); conditions: 18 h
Description: as §2, §3, §4
The bacterium used for the test was Staphylococcus aureus (209-P).

[5] = tested on: Pasteurella multocida (Kobe-6); experiment: Antibacterial activity (IC), agar as in Example 8 (Example 17, Table 50); conditions: 18 h, origin pig
Description: as §2, §3, §4
In a manner similar to that described in Example 8, antibacterial activity of the invention compound was determined. The bacterium used for the test was Pasteurella Kobe-6 (origin: pig, Pasteurella multocida).

[6] = tested on: methicillin-resistant Staphylococcus aureus (MRSA) from humans; experiment: Antibacterial activity (IC), agar as in Example 8 (Example 19, Table 52); conditions: 18 h
Description: as §2, §3, §4
In a manner similar to that described in Example 8, antibacterial activity of a variety of ketonitrile derivatives shown in Table 52 was measured. The bacterium used for the test was methicillin-resistant Staphylococcus aureus (MRSA) from humans.

Enterococcus from fish = experiment: Antibacterial activity (IC), agar as in Example 8, media with 1.5% NaCl, 25°C (Example 20, Tables 53-55)
Description: as §2, §3, §4
(§5) In a manner similar to that described in Example 8, antibacterial activity of a variety of ketonitrile derivatives shown in Tables 53-55 was measured. The bacteria used for the test were Enterococcus and Pasteurella from fish. The culture conditions were such that the media contained 1.5% NaCl, and the culture temperature was 25°C.

Pasteurella from fish = experiment: as above; conditions: Pasteurella piscicida KP94-02
Description: as §2, §3, §4, §5

N#CC(C(=O)COc1ccc(Oc2ncc(C(F)(F)F)cc2Cl)cc1)c1cccc(Cl)c1 (stereo not shown) [compound 12]
MIC [1]: 10 to 100 µg/mL (≈ 20.8 to 208 µM) | MIC [2]: 1 to 10 µg/mL (≈ 2.08 to 20.8 µM)

CC(Oc1ccc(Oc2ccc(C(F)(F)F)cn2)cc1)C(=O)C(C#N)c1cccc(C(F)(F)F)c1 (stereo not shown) [compound 8]
MIC [1]: 10 to 100 µg/mL (≈ 20.2 to 202 µM) | MIC [2]: 1 to 10 µg/mL (≈ 2.02 to 20.2 µM)

CC(Oc1ccc(Oc2ncc(C(F)(F)F)cc2Cl)cc1)C(=O)C(C#N)C(=O)N(Cc1ccccc1)Cc1ccccc1 (stereo not shown) [Compound No. 38, 4-[4-(3-chloro-5-trifluoromethylpyridyloxy)phenoxy]-2-dibenzylamidecarbonile-3-oxopentanitrile]
MIC [1]: 1 to 10 µg/mL (≈ 1.64 to 16.4 µM)

CC(Oc1cc(Oc2ccc(C(F)(F)F)cc2Cl)ccc1Cl)C(=O)C(C#N)C(=O)N1CCCC1 (stereo not shown) [compound 169]
MIC [3]: 10 to 100 µg/mL (≈ 19.4 to 194 µM) | MIC [4]: 10 to 100 µg/mL (≈ 19.4 to 194 µM)

CC(Oc1cccc(Oc2ccc(C(F)(F)F)cc2Cl)c1)C(=O)C(C#N)c1cccc(Cl)c1 (stereo not shown) [compound 207]
MIC [3]: ≤ 1 µg/mL | MIC [4]: ≤ 1 µg/mL

CCN(Cc1ccccc1)C(=O)C(C#N)C(=O)C(C)Oc1ccc(Oc2ncc(C(F)(F)F)cc2Cl)cc1 (stereo not shown) [compound 39]
MIC [1]: 10 to 100 µg/mL (≈ 18.3 to 183 µM)

CC(Oc1ccc(Oc2ccc([N+](=O)[O-])cc2F)cc1)C(=O)C(C#N)c1ccc(Cl)cc1Cl (stereo not shown) [compound 29]
MIC [1]: 10 to 100 µg/mL (≈ 20.4 to 204 µM) | MIC [2]: 10 to 100 µg/mL (≈ 20.4 to 204 µM)

CC(Oc1ccc(Oc2ncc(C(F)(F)F)cc2Cl)cc1)C(=O)C(C#N)c1ccccc1 (stereo not shown) [compound 18]
MIC [1]: 10 to 100 µg/mL (≈ 21.7 to 217 µM) | MIC [2]: 1 to 10 µg/mL (≈ 2.17 to 21.7 µM)

CC(Oc1ccc(Oc2ccc(C#N)cc2F)cc1)C(=O)C(C#N)c1ccc(Cl)cc1Cl (stereo not shown) [Compound No. 31]
MIC [1]: 10 to 100 µg/mL (≈ 21.3 to 213 µM) | MIC [2]: 10 to 100 µg/mL (≈ 21.3 to 213 µM)

CC(Oc1ccc(Oc2ncc(C(F)(F)F)cc2Cl)cc1)C(=O)C(C#N)C(=O)N1CCCc2ccccc21 (stereo not shown) [compound 40]
MIC [1]: 10 to 100 µg/mL (≈ 18.4 to 184 µM)

CC(Oc1cc(Oc2ccc(C(F)(F)F)cc2Cl)ccc1Cl)C(=O)C(C#N)C(=O)N1CCOCC1 (stereo not shown) [compound 172]
MIC [4]: 10 to 100 µg/mL (≈ 18.8 to 188 µM)

CC(Oc1ccc(Oc2ncc(C(F)(F)F)cc2Cl)cc1)C(=O)C(C#N)c1ccc(F)cc1F (stereo not shown) [compound 25]
MIC [1]: 10 to 100 µg/mL (≈ 20.1 to 201 µM) | MIC [2]: 10 to 100 µg/mL (≈ 20.1 to 201 µM)

CC(Oc1cccc(Oc2ccc(C(F)(F)F)cc2Cl)c1)C(=O)C(C#N)c1cccc(Br)c1 (stereo not shown) [Compound No. 104, 2-(3-bromophenyl)-4-[3-(2-chloro-4-trifluoromethylphenoxy)phenoxy]-3-oxopentanonitrile]
MIC [5]: 1 to 10 µg/mL (≈ 1.86 to 18.6 µM) | MIC [3]: ≤ 1 µg/mL | MIC [4]: ≤ 1 µg/mL | MIC ([6]; MRSA strain 891179): 1 to 10 µg/mL (≈ 1.86 to 18.6 µM) | MIC ([6]; MRSA strain 891185): 1 to 10 µg/mL (≈ 1.86 to 18.6 µM) | MIC ([6]; MRSA strain 891187): 1 to 10 µg/mL (≈ 1.86 to 18.6 µM) | MIC ([6]; MRSA strain 891192): 1 to 10 µg/mL (≈ 1.86 to 18.6 µM) | MIC ([6]; MRSA strain 900048): 1 to 10 µg/mL (≈ 1.86 to 18.6 µM) | MIC ([6]; MRSA strain 900056): 1 to 10 µg/mL (≈ 1.86 to 18.6 µM)

CC(Oc1cc(Oc2ccc(C(F)(F)F)cc2Cl)ccc1[N+](=O)[O-])C(=O)C(C#N)C(=O)N1CCCCC1 (stereo not shown) [compound 135]
MIC [5]: 10 to 100 µg/mL (≈ 18.5 to 185 µM) | IC (Enterococcus from fish; Enterococcus Seriolicida HI): ≤100 (MIC-equivalent values obtained at the succesive 2-fold dilution of the sample are 100-10 µg/ml) | IC (Enterococcus from fish; Enterococcus Seriolicida KG86050): ≤100 (MIC-equivalent values obtained at the succesive 2-fold dilution of the sample are 100-10 µg/ml) | IC (Enterococcus from fish; Enterococcus Seriolicida MS89060): ≤100 (MIC-equivalent values obtained at the succesive 2-fold dilution of the sample are 100-10 µg/ml) | IC (Enterococcus from fish; Enterococcus Seriolicida MS89064): ≤100 (MIC-equivalent values obtained at the succesive 2-fold dilution of the sample are 100-10 µg/ml) | IC (Enterococcus from fish; Enterococcus Seriolicida MS89066): ≤100 (MIC-equivalent values obtained at the succesive 2-fold dilution of the sample are 100-10 µg/ml) | IC (Enterococcus from fish; Enterococcus Seriolicida MS89068): ≤100 (MIC-equivalent values obtained at the succesive 2-fold dilution of the sample are 100-10 µg/ml) | IC (Enterococcus from fish; Enterococcus Seriolicida SE94-001): ≤100 (MIC-equivalent values obtained at the succesive 2-fold dilution of the sample are 100-10 µg/ml) | MIC (Enterococcus from fish; Enterococcus Seriolicida SE94-002): 10 to 100 µg/mL (≈ 18.5 to 185 µM) | IC (Enterococcus from fish; Enterococcus Seriolicida SE94-003): ≤100 (MIC-equivalent values obtained at the succesive 2-fold dilution of the sample are 100-10 µg/ml) | IC (Enterococcus from fish; Enterococcus Seriolicida SE94-004): ≤100 (MIC-equivalent values obtained at the succesive 2-fold dilution of the sample are 100-10 µg/ml) | IC (Enterococcus from fish; Enterococcus Seriolicida SE94-005): ≤100 (MIC-equivalent values obtained at the succesive 2-fold dilution of the sample are 100-10 µg/ml) | MIC (Pasteurella from fish): 10 to 100 µg/mL (≈ 18.5 to 185 µM)

CC(Oc1ccc(Oc2ccc(C#N)cc2F)cc1)C(=O)C(C#N)c1ccccc1 (stereo not shown) [Compound No. 30]
MIC [1]: 10 to 100 µg/mL (≈ 25 to 250 µM) | MIC [2]: 10 to 100 µg/mL (≈ 25 to 250 µM)

CC(Oc1ccc(Oc2nc(Cl)c(Cl)cc2Cl)cc1)C(=O)C(C#N)c1ccc(Cl)cc1Cl (stereo not shown) [compound 7]
MIC [1]: 10 to 100 µg/mL (≈ 18.8 to 188 µM) | MIC [2]: 1 to 10 µg/mL (≈ 1.88 to 18.8 µM)

CC(Oc1cc(Oc2ccc(C(F)(F)F)cc2Cl)ccc1Cl)C(=O)C(C#N)c1ccc(Cl)c(Cl)c1 (stereo not shown) [compound 152]
MIC [5]: 1 to 10 µg/mL (≈ 1.78 to 17.8 µM) | MIC [3]: ≤ 1 µg/mL | MIC [4]: ≤ 1 µg/mL
